Laboratory results published in ChEMBL document CHEMBL5050844 (2019).

Key:
[1] = target: T1, E3 ubiquitin-protein ligase CBL-B (Homo sapiens, UniProt Q13191); assay: Inhibition of N-terminal Avi-tagged human CBL-B (36 to 427 residues) incubated with 30 nM Src kinase for 1.5 hrs followed by incubation with fluorescently labeled UbcH5B-Ub for 1 hr and measured by TR-FRET assay
[2] = target: T1, E3 ubiquitin-protein ligase CBL-B; assay: Binding affinity towards N-terminal biotinylated Avi-tagged human CBL-B (36 to 427 residues) measured by surface plasmon resonance assay
[3] = Induction of anti-CD3/CD28 antibodies-stimulated human T cell activation at 0.3 uM assessed fold increase in IL-2 secretion measured by ELISA assay; format: functional, T cell line
[4] = Induction of anti-CD3 antibodies-stimulated human CD4+ T cell activation in immunocompetent mouse assessed fold increase in CD25 expression at 90 mg/kg, po administered twice a day; format: functional; note: reference of the scale not given here
[5] = Induction of anti-CD3 antibodies-stimulated human T cell activation at 1 uM assessed fold increase in IL-2 secretion measured by ELISA assay; format: functional, T cell line; note: reference of the scale not given here
[6] = Induction of anti-CD3 antibodies-stimulated human CD8+ T cell activation in immunocompetent mouse assessed fold increase in CD25 expression at 90 mg/kg, po administered twice a day; format: functional; note: reference of the scale not given here
[7] = Induction of anti-CD3/CD28 antibodies-stimulated human T cell activation at 1 uM assessed fold increase in IL-2 secretion measured by ELISA assay; format: functional, T cell line
[8] = Induction of anti-CD3/CD28 antibodies-stimulated human T cell activation at 0.3 uM assessed fold increase in CD25 expression measured by ELISA assay; format: functional, T cell line
[9] = Induction of anti-CD3 antibodies-stimulated human CD4+ T cell activation in immunocompetent mouse assessed fold increase in CD25 expression at 180 mg/kg, po administered twice a day; format: functional; note: reference of the scale not given here
[10] = Induction of anti-CD3 antibodies-stimulated human T cell activation at 8 uM assessed fold increase in IL-2 secretion measured by ELISA assay; format: functional, T cell line; note: reference of the scale not given here
[11] = Induction of anti-CD3/CD28 antibodies-stimulated human T cell activation at 1 uM assessed fold increase in CD25 expression measured by ELISA assay; format: functional, T cell line
[12] = Induction of anti-CD3 antibodies-stimulated human CD8+ T cell activation in immunocompetent mouse assessed fold increase in CD25 expression at 135 mg/kg, po administered twice a day; format: functional; note: reference of the scale not given here
[13] = Induction of anti-CD3 antibodies-stimulated human CD8+ T cell activation in immunocompetent mouse assessed fold increase in CD25 expression at 90 mg/kg, ip administered thrice a day; format: functional; note: reference of the scale not given here
[14] = target: T1, E3 ubiquitin-protein ligase CBL-B; assay: Inhibition of N-terminal Avi-tagged human CBL-B (36 to 427 residues) incubated with 60 nM Src kinase for 1.5 hrs followed by incubation with fluorescently labeled UbcH5B-Ub for 1 hr and measured by TR-FRET assay; format: single protein
[15] = Induction of anti-CD3 antibodies-stimulated human T cell activation at 8 uM assessed fold increase in CD25 expression measured by ELISA assay; format: functional, T cell line; note: reference of the scale not given here
[16] = Induction of anti-CD3 antibodies-stimulated human T cell activation at 1 uM assessed fold increase in CD25 expression measured by ELISA assay; format: functional, T cell line; note: reference of the scale not given here
[17] = Induction of anti-CD3/CD28 antibodies-stimulated human T cell activation at 4 uM assessed fold increase in IL-2 secretion measured by ELISA assay; format: functional, T cell line
[18] = Induction of anti-CD3/CD28 antibodies-stimulated human T cell activation at 4 uM assessed fold increase in CD25 expression measured by ELISA assay; format: functional, T cell line
[19] = Induction of anti-CD3 antibodies-stimulated human CD8+ T cell activation in immunocompetent mouse assessed fold increase in CD25 expression at 180 mg/kg, po administered twice a day; format: functional; note: reference of the scale not given here
[20] = Induction of anti-CD3 antibodies-stimulated human CD4+ T cell activation in immunocompetent mouse assessed fold increase in CD25 expression at 135 mg/kg, po administered twice a day; format: functional; note: reference of the scale not given here

T1 sequence (Q13191 whole entry, the tested form may be a part): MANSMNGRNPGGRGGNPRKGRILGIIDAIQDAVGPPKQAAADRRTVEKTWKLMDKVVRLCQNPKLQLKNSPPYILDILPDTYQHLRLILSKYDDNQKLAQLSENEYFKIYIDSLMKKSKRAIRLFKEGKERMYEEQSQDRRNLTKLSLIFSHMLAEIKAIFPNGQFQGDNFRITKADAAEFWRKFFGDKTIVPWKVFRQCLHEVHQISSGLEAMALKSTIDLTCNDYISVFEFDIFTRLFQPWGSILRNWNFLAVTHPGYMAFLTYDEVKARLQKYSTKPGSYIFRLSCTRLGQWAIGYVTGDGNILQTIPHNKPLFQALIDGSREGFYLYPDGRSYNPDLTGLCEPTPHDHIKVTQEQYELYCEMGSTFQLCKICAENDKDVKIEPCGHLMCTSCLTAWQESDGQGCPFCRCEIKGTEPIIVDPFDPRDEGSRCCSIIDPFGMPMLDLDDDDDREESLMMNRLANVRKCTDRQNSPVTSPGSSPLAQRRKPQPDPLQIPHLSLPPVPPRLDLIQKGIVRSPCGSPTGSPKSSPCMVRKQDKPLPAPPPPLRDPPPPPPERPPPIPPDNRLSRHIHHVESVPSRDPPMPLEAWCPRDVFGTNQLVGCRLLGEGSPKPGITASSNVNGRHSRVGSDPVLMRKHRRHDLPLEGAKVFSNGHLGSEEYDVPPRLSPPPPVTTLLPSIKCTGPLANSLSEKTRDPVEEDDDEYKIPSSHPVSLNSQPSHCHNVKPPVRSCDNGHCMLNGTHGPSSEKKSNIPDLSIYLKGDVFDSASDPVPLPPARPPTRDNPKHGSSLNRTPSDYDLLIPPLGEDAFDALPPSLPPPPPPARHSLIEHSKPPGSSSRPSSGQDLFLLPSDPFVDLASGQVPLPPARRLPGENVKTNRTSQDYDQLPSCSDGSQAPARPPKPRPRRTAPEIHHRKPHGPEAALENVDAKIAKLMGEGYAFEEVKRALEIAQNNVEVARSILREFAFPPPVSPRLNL

**Q.** Which IC50 [1] does the source give for `COc1cccc(C(=O)Nc2cccc(C(C)Sc3nncn3C)c2)c1` (stereo not drawn) here?
**A.** Its IC50 is greater than 10 µM.

**Q.** And the Kd [2]?
**A.** The Kd was greater than 10 µM.

**Q.** With `COc1ccc(C(=O)Nc2cccc(C(C)Sc3nncn3C)c2)cc1` (stereo not drawn) as the compound, how does the IC50 [1] read?
**A.** Its IC50 is greater than 10 µM.

**Q.** What about the Kd [2] of the same compound?
**A.** The Kd was greater than 10 µM.

**Q.** For `Cn1cnnc1CC1(c2cccc(N3Cc4c(cc(CN5CC[C@H](F)C5)cc4C(F)(F)F)C3=O)c2)COC1`, which “fold change (FC)” value [3] is on record?
**A.** The value was 5.

**Q.** And the “fold change (FC)” value [4]?
**A.** The value was 1.

**Q.** And the “fold change (FC)” value [5]?
**A.** Its value is “>=0.201”.

**Q.** What about the “fold change (FC)” value [6] of the same compound?
**A.** The value was 1.

**Q.** What about the “fold change (FC)” value [7] of the same compound?
**A.** The value was “>=7.5”.

**Q.** And the “fold change (FC)” value [8]?
**A.** Its value is 1.31.

**Q.** And the “fold change (FC)” value [9]?
**A.** Its value is 1.

**Q.** And the “fold change (FC)” value [10]?
**A.** The value was “>=0.201”.

**Q.** And the “fold change (FC)” value [11]?
**A.** The value was 1.51.

**Q.** What about the “fold change (FC)” value [12] of the same compound?
**A.** The value was 1.

**Q.** What about the “fold change (FC)” value [13] of the same compound?
**A.** The value was 1.

**Q.** What about the IC50 [14] of the same compound?
**A.** Its IC50 is less than 0.1 µM.

**Q.** And the “fold change (FC)” value [15]?
**A.** The value was “>=1.001”.

**Q.** And the “fold change (FC)” value [16]?
**A.** Its value is “>=1.001”.

**Q.** What about the “fold change (FC)” value [17] of the same compound?
**A.** The value was “>=7.5”.

**Q.** And the “fold change (FC)” value [18]?
**A.** Its value is 1.51.

**Q.** And the “fold change (FC)” value [19]?
**A.** The value was 1.

**Q.** What about the “fold change (FC)” value [20] of the same compound?
**A.** The value was 1.

**Q.** For `C[C@H](Sc1nncn1C)c1ccnc(N)c1`, which IC50 [1] is on record?
**A.** The IC50 was no less than 3 µM.

**Q.** What about the Kd [2] of the same compound?
**A.** The Kd was greater than 10 µM.

**Q.** For `COc1ccccc1C(=O)Nc1cccc(C(C)Sc2nncn2C)c1` (stereo not drawn), which IC50 [1] is on record?
**A.** Its IC50 is greater than 10 µM.

**Q.** And the Kd [2]?
**A.** The Kd was greater than 10 µM.

**Q.** For `CC(Sc1nncn1C)c1cccc(NC(=O)c2ccc3ncccc3c2)c1` (stereo not drawn), which IC50 [1] is on record?
**A.** Its IC50 is greater than 10 µM.

**Q.** What about the Kd [2] of the same compound?
**A.** Its Kd is greater than 10 µM.

**Q.** Which results are given for `Cc1nc2cc(C(C)Sc3nncn3C)cc(N)c2o1` (stereo not drawn)?
**A.** IC50 [1]: ≥ 3 µM; Kd [2]: ≥ 3 µM

**Q.** Which results are given for `CC(Sc1nncn1C)c1cccc(NC(=O)c2ccc3ccncc3c2)c1` (stereo not drawn)?
**A.** IC50 [1]: > 10 µM; Kd [2]: > 10 µM

**Q.** With `CC(Sc1nncn1C)c1cccc(NC(=O)c2ccc3cnccc3c2)c1` (stereo not drawn) as the compound, how does the IC50 [1] read?
**A.** The IC50 was greater than 10 µM.

**Q.** With `Cn1cnnc1CC1(c2cccc(N3Cc4c(cc(CN5CCC(C)(F)CC5)cc4C(F)(F)F)C3=O)c2)COC1` as the compound, how does the “fold change (FC)” value [3] read?
**A.** Its value is “>=7.5”.

**Q.** And the “fold change (FC)” value [4]?
**A.** The value was 1.

**Q.** And the “fold change (FC)” value [5]?
**A.** The value was “>=0.201”.

**Q.** What about the “fold change (FC)” value [6] of the same compound?
**A.** Its value is 1.

**Q.** What about the “fold change (FC)” value [7] of the same compound?
**A.** Its value is “>=7.5”.

**Q.** What about the “fold change (FC)” value [8] of the same compound?
**A.** Its value is 1.31.

**Q.** And the “fold change (FC)” value [9]?
**A.** Its value is 1.

**Q.** And the “fold change (FC)” value [11]?
**A.** Its value is 1.31.

**Q.** What about the “fold change (FC)” value [12] of the same compound?
**A.** Its value is less than 1.

**Q.** And the “fold change (FC)” value [13]?
**A.** Its value is 1.

**Q.** And the IC50 [14]?
**A.** Its IC50 is less than 0.1 µM.

**Q.** And the “fold change (FC)” value [16]?
**A.** The value was “>=1.001”.

**Q.** What about the “fold change (FC)” value [19] of the same compound?
**A.** Its value is less than 1.

**Q.** What about the Kd [2] of the same compound?
**A.** Its Kd is less than 0.1 µM.

**Q.** And the “fold change (FC)” value [20]?
**A.** Its value is 1.

**Q.** Which “fold change (FC)” value [3] does the source give for `C[C@H](Sc1nncn1C)c1cccc(NC(=O)c2ccc3ccccc3n2)c1` here?
**A.** The value was 1.01.

**Q.** And the IC50 [1]?
**A.** The IC50 was no more than 1 µM.

**Q.** And the “fold change (FC)” value [5]?
**A.** Its value is “<=0.05”.

**Q.** What about the “fold change (FC)” value [7] of the same compound?
**A.** The value was 1.01.

**Q.** And the “fold change (FC)” value [8]?
**A.** Its value is 1.01.

**Q.** What about the “fold change (FC)” value [10] of the same compound?
**A.** The value was 0.051.

**Q.** What about the “fold change (FC)” value [11] of the same compound?
**A.** The value was 1.01.

**Q.** What about the IC50 [14] of the same compound?
**A.** Its IC50 is no more than 1 µM.

**Q.** And the “fold change (FC)” value [15]?
**A.** The value was 0.601.

**Q.** And the “fold change (FC)” value [16]?
**A.** The value was 0.601.

**Q.** What about the “fold change (FC)” value [17] of the same compound?
**A.** The value was 1.01.

**Q.** And the “fold change (FC)” value [18]?
**A.** The value was 1.01.

**Q.** What about the Kd [2] of the same compound?
**A.** Its Kd is no less than 1 µM.

**Q.** Which “fold change (FC)” value [3] does the source give for `CC(Sc1nncn1C)c1cccc(NC(=O)c2ccc3ccccc3n2)c1` (stereo not drawn) here?
**A.** The value was 1.01.

**Q.** And the Kd [1]?
**A.** Its Kd is no less than 1 µM.

**Q.** What about the “fold change (FC)” value [5] of the same compound?
**A.** The value was “<=0.05”.

**Q.** What about the “fold change (FC)” value [7] of the same compound?
**A.** The value was 1.01.

**Q.** And the “fold change (FC)” value [8]?
**A.** Its value is “<=1”.

**Q.** What about the “fold change (FC)” value [10] of the same compound?
**A.** The value was 0.051.

**Q.** And the “fold change (FC)” value [11]?
**A.** The value was “<=1”.

**Q.** What about the IC50 [14] of the same compound?
**A.** Its IC50 is no more than 1 µM.

**Q.** And the “fold change (FC)” value [15]?
**A.** Its value is 0.601.

**Q.** And the “fold change (FC)” value [16]?
**A.** Its value is “<=0.6”.

**Q.** What about the “fold change (FC)” value [17] of the same compound?
**A.** Its value is 2.51.

**Q.** What about the “fold change (FC)” value [18] of the same compound?
**A.** Its value is 1.01.

**Q.** What about the Kd [2] of the same compound?
**A.** Its Kd is no less than 1 µM.

**Q.** With `CC(Sc1nncn1C)c1cccc(NC(=O)c2ccccn2)c1` (stereo not drawn) as the compound, how does the IC50 [1] read?
**A.** Its IC50 is no less than 3 µM.

**Q.** And the Kd [2]?
**A.** Its Kd is greater than 10 µM.

**Q.** Which IC50 [1] does the source give for `CC(Sc1nncn1C)c1cccc(NC(=O)c2cnc3ccccc3c2)c1` (stereo not drawn) here?
**A.** The IC50 was no less than 3 µM.

**Q.** With `Cc1ccc2cc(C(=O)Nc3cccc(C(C)Sc4nncn4C)c3)cnc2c1` (stereo not drawn) as the compound, how does the IC50 [1] read?
**A.** The IC50 was greater than 10 µM.

**Q.** What does the source list for `C[C@@H](Cc1nncn1C)c1cccc(N2Cc3c(cccc3C(F)(F)F)C2=O)c1`?
**A.** fold change (FC) [6]: <1; fold change (FC) [9]: <1; fold change (FC) [12]: <1; fold change (FC) [19]: <1; fold change (FC) [20]: <1
